Data: PMC5038266 (Antimicrobial Agents and Chemotherapy, 2016)
“Also recorded” adds a separate entry of the source. Read-outs that look alike come from different tables or passages of the source.

Legend:
[1] = Study 1: multiple-dose drug-drug interaction pharmacokinetics, delamanid with ethambutol plus Rifater; conditions: for AUC / Cmax: human, plasma, po, ethambutol 1100 mg + Rifater once daily, mean ± SD; for AUC: AUCτ of coadministered drug; for Cmax: Cmax of coadministered drug
[2] = Study 2: multiple-dose drug-drug interaction pharmacokinetics, delamanid with tenofovir or Kaletra (lopinavir/ritonavir); conditions: for Equivalence outcome for steady-state exposure of coadministered drug: coadministered with delamanid
[3] = Study 2 safety assessments (adverse events); assay type: in vivo, human (healthy subjects); conditions: combinations of delamanid with either tenofovir or lopinavir and ritonavir
[4] = Study 3 safety assessments (adverse events); assay type: in vivo, human (healthy subjects); conditions: efavirenz alone, delamanid alone, and delamanid plus efavirenz
[5] = human, in vivo
[6] = in vivo
[7] = Study 1; multiple once-daily oral doses of 200 mg delamanid alone and in combination with ethambutol and rifampin/isoniazid/pyrazinamide
[8] = tested on: MDR-TB; conditions: cited from earlier work
[9] = tested on: CYP enzymes; parameters: method as in PMID 17132069; conditions: cited from earlier work
[10] = clinical; conditions: human, in vivo, po; for Tmax: Delamanid Tmax
[11] = clinical; conditions: human, in vivo, po; for AUC: Delamanid AUCτ
[12] = Study 3: multiple-dose drug-drug interaction pharmacokinetics, delamanid with efavirenz; conditions: for AUC / Cmax: human, po; for AUC: Delamanid AUCτ
[13] = delamanid plus optimized background regimen for ≤2 months
[14] = ethambutol-Rifater plus delamanid versus ethambutol-Rifater alone
[15] = with DLM, day 15, with delamanid 200 mg once daily
[16] = without DLM, day 15, without delamanid
[17] = Cmax of coadministered drug, with DLM

C[C@]1(COc2ccc(N3CCC(Oc4ccc(OC(F)(F)F)cc4)CC3)cc2)CN=C(N)O1 [DM-6705]
Lower metabolite AUCτ when delamanid coadministered with ethambutol-Rifater ([1]; based on the AUC, versus delamanid alone): 30 to 50%
Higher exposure on coadministration of lopinavir/ritonavir (Kaletra) with delamanid ([2]; delamanid and metabolites, unpublished results for metabolites): approximately 25%

C[C@]1(COc2ccc(N3CCC(Oc4ccc(OC(F)(F)F)cc4)CC3)cc2)Cn2cc([N+](=O)[O-])nc2O1 [Delamanid]
Tolerability [3]: well tolerated
Tolerability [4]: well tolerated
Delamanid concentrations reached steady state by day [5]: ≤ 15 days
Lower delamanid AUCτ on coadministration with ethambutol plus Rifater [5]: 47%
Lower delamanid Cmax on coadministration with ethambutol plus Rifater [5]: 42%
Delamanid concentrations reached steady-state by day ([6]; human): ≤ 14 days
Delamanid AUCτ ([6]; human, po, 100 mg): 5,830 ± 1,660 ng·h/ml
Delamanid Cmax ([6]; human, po, 100 mg): 734 ± 196 ng/mL
Effect of tenofovir coadministration on delamanid PK/systemic exposure [6]: did not affect
Equivalence outcome for steady-state exposure of delamanid [6]: documented
Tolerability [7]: well tolerated
Improvement of 2-month sputum culture conversion ([8]; MDR-TB patients, delamanid + optimized background regimen for 2 months compared to placebo + optimized background regimen): approximately 50%
Favorable treatment outcomes [8, 13]: 55%
Mortality [8, 13]: 12.0%
Favorable treatment outcomes ([8]; delamanid plus optimized background regimen for ≥6 months, P < 0.001): 74.5%
Mortality ([8]; delamanid plus optimized background regimen for ≥6 months, P = 0.001): 2.9%
Effects on CYP activities ([9]; in vitro): neither stimulatory nor inhibitory effects
Metabolism by CYP enzymes ([9]; incubation of delamanid with liver microsomes, metabolites minimally quantifiable): not metabolized by CYP enzymes
AUC ([10]; 200 mg, Delamanid AUCτ): 3110 ng·h/mL
AUC ([10]; 200 mg, Delamanid AUCτ, Study 1, DLM + PLC, delamanid 200 mg once daily, day 15, plasma, mean ± SD): 5950 ng·h/mL
Cmax ([10]; 200 mg, Delamanid Cmax): 270 ± 38.9 ng/mL
Cmax ([10]; 200 mg, Delamanid Cmax, Study 1, DLM + PLC, delamanid 200 mg once daily, day 15, plasma, mean ± SD): 476 ± 119 ng/mL
Tmax ([10]; 200 mg): 4.06 h
Tmax ([10]; 200 mg, Study 1, DLM + PLC, delamanid 200 mg once daily, day 15, plasma, median (min-max)): 4 h
Tmax ([11]; 100 mg): 4 h
AUC ([11]; 100 mg): 4510 ng·h/mL
AUC ([11]; 100 mg, Study 2, DLM alone, delamanid 100 mg twice daily, day 14, plasma, mean ± SD): 4700 ng·h/mL
Cmax ([11]; 100 mg, Delamanid Cmax): 518 ± 114 ng/mL
Cmax ([11]; 100 mg, Delamanid Cmax, Study 2, DLM alone, delamanid 100 mg twice daily, day 14, plasma, mean ± SD): 617 ± 135 ng/mL
Effect of efavirenz coadministration on delamanid steady-state exposure/PK [12]: did not significantly affect
Delamanid Tmax ([12]; DLM alone, delamanid 100 mg twice daily, day 7 evening dose, median (min-max)): 4.00 (2.00–6.00) h
AUC ([12]; in vivo, 100 mg, DLM + EFV (efavirenz 600 mg once daily for 10 days), delamanid 100 mg twice daily, day 17 evening dose, mean ± SD): 4240 ng·h/mL
AUC ([12]; in vivo, 100 mg, DLM alone, delamanid 100 mg twice daily, day 7 evening dose, mean ± SD): 4380 ng·h/mL
Cmax ([12]; in vivo, 100 mg, Delamanid Cmax, DLM + EFV (efavirenz 600 mg once daily for 10 days), delamanid 100 mg twice daily, day 17 evening dose): 394 ng/mL
Cmax ([12]; in vivo, 100 mg, Delamanid Cmax, DLM alone, delamanid 100 mg twice daily, day 7 evening dose): 391 ng/mL
Effect of CYP2C9 genotype on delamanid PK ([1]; unpublished results): no effect
Equivalence outcome for delamanid exposure ([2]; after lopinavir/ritonavir coadministration): Equivalence was suggested

O=C1Nc2ccc(Cl)cc2[C@@](C#CC2CC2)(C(F)(F)F)O1 [Efavirenz]
Tolerability [4]: well tolerated
Effect of delamanid on efavirenz plasma concentrations/exposure [12]: not affected; also recorded: did not affect
AUCτ of coadministered drug, without DLM ([12]; efavirenz 600 mg once daily in the evening for 10 days, without delamanid, mean ± SD): 84.7 ± 37.8 (14) h·µg/ml
Cmax ([12]; plasma, 600 mg, Cmax of coadministered drug, with DLM, efavirenz 600 mg once daily in the evening for 10 days, with delamanid 100 mg twice daily, mean ± SD): 5810 ± 3030 ng/mL
Cmax ([12]; plasma, 600 mg, Cmax of coadministered drug, without DLM, efavirenz 600 mg once daily in the evening for 10 days, without delamanid, mean ± SD): 5950 ± 1670 ng/mL

CC[C@@H](CO)NCCN[C@@H](CC)CO [Ethambutol]
Higher AUCτ with delamanid coadministration [1, 14]: approximately 25%
Higher Cmax with delamanid coadministration [1, 14]: approximately 25%
AUC [1, 15]: 22400 ± 4770 ng·h/mL
AUC [1, 16]: 18200 ± 3210 ng·h/mL
Cmax [1, 15]: 4450 ± 820 ng/mL

NNC(=O)c1ccncc1 [Isoniazid]
AUC ([10]; AUCτ of coadministered drug, without DLM, Study 1, ethambutol 1100 mg + Rifater once daily, day 15, without delamanid, mean ± SD): 20000 ± 8000 ng·h/mL
Isoniazid concentrations in slow acetylators versus intermediate/rapid acetylators (NAT2 genotype) [1]: ~2 fold
AUC [1, 15]: 12100 ± 6900 ng·h/mL
Cmax [1, 15]: 4620 ± 980 ng/mL

Cc1cccc(C)c1OCC(=O)N[C@@H](Cc1ccccc1)[C@@H](O)C[C@H](Cc1ccccc1)NC(=O)[C@H](C(C)C)N1CCCNC1=O [Lopinavir]
Effect of delamanid on exposure of coadministered drug [2]: not affected
Equivalence outcome for steady-state exposure of coadministered drug [2]: equivalence was documented
Cmax of coadministered drug, without DLM ([2]; tenofovir 300 mg once daily or lopinavir 400 mg/ritonavir 100 mg twice daily, day 14, without delamanid, mean ± SD): 12.9 ± 3.17 (11) μg/ml

NC(=O)c1cnccn1 [Pyrazinamide]
Cmax ([10]; Cmax of coadministered drug, without DLM): 49700 ng/mL
AUC [1, 15]: 533000 ± 141000 ng·h/mL
AUC [1, 16]: 488000 ± 90300 ng·h/mL
Cmax [1, 15]: 51400 ± 9060 ng/mL

CO[C@H]1/C=C/O[C@@]2(C)Oc3c(C)c(O)c4c(O)c(c(/C=N/N5CCN(C)CC5)c(O)c4c3C2=O)NC(=O)/C(C)=C\C=C\[C@H](C)[C@H](O)[C@@H](C)[C@@H](O)[C@@H](C)[C@H](OC(C)=O)[C@@H]1C [Rifampin]
AUC ([10]; AUCτ of coadministered drug, with DLM): 55900 ng·h/mL
AUC ([10]; AUCτ of coadministered drug, without DLM): 48200 ng·h/mL
Cmax [10, 17]: 13200 ng/mL

CC(C)c1nc(CN(C)C(=O)N[C@H](C(=O)N[C@@H](Cc2ccccc2)C[C@H](O)[C@H](Cc2ccccc2)NC(=O)OCc2cncs2)C(C)C)cs1 [Ritonavir]
Cmax [11, 17]: 1270 ng/mL
Effect of delamanid on exposure of coadministered drug [2]: not affected
Equivalence outcome for steady-state exposure of coadministered drug [2]: suggested

C[C@H](Cn1cnc2c(N)ncnc21)OCP(=O)(O)O [Tenofovir]
Cmax [11, 17]: 294 ng/mL
Effect of delamanid on exposure of coadministered drug [2]: not affected
Equivalence outcome for steady-state exposure of coadministered drug [2]: suggested
AUCτ of coadministered drug, with DLM ([2]; tenofovir 300 mg once daily or lopinavir 400 mg/ritonavir 100 mg twice daily, day 14, with delamanid 100 mg twice daily, mean ± SD): 2.850 ± 0.644 (13) h·µg/ml
